According to patent US11753446B2, “Beta-hairpin peptidomimetics” (POLYPHOR AG, priority 2014, dated 2023):
Where a SMILES comes first, the peptide text is derived from it. Bridges are numbered along the chain shown (N, C = ends). [ ]: non-standard residue; d: D form. Ala(cPent) = N[C@@H](CC1CCCC1)C(=O)O; Tle = CC(C)(C)[C@H](N)C(=O)O; dDab = NCC[C@@H](N)C(=O)O; NMeA = CN[C@@H](C)C(=O)O; Orn = NCCC[C@H](N)C(=O)O; Dab = NCC[C@H](N)C(=O)O; Dap = NC[C@H](N)C(=O)O

Columns and labels:
[1] = tested on: Escherichia coli ATCC 25922; format: cell-based; settings: ATCC 25922
Description: (§1) Stock solutions were kept at +4° C., light protected.
(§2) The selective antimicrobial activities of the peptides were determined in 96-well plates (Greiner, polystyrene) by the standard NCCLS broth microdilution method (National Committee for Clinical Laboratory Standards 1993. Methods for dilution antimicrobial susceptibility tests for bacteria that grow aerobically, 3rd ed. Approved standard M7-A6; National Committee for Clinical laboratory standards, Wayne, Pa.) with slight modifications. Inocula of the microorganisms were diluted into Mueller-Hinton II (MH, cation adjusted) broth and compared with a 0.5 McFarland standard to give appr. 10^6 colony forming units (CFU)/mL. Aliquots (90 μl) of inoculate were added to 10 μl of MH broth+P-80 (Polysorbate 80, 0.002% final concentration) containing the peptide in serial two-fold dilutions. The following microorganisms were used to determine antibiotic selectivity of the peptides: Escherichia coli ATCC 25922, Klebsiella pneumoniae ATCC 13883 and Acinetobacter baumannii DSM 30008.

[2] = tested on: Klebsiella pneumoniae ATCC 13883; format: cell-based; settings: ATCC 13883
Description: as §1, §2

[3] = tested on: Acinetobacter baumannii DSM 30008; format: cell-based; settings: DSM 30008
Description: as §1, §2

[4] = tested on: human red blood cells (hRBC); test: Hemolysis: hemolytic activity at 100 μg/mL, 1 h at 37° C.; settings: red cells of human, 1 h
Description: Lyophilized peptides were weighed on a Microbalance (Mettler MT5) and dissolved in sterile water to a final concentration of 1 mg/mL. Stock solutions were kept at +4° C., light protected.
The peptides were tested for their hemolytic activity against human red blood cells (hRBC). Fresh hRBC were washed three times with phosphate buffered saline (PBS) and centrifuged for 5 min at 3000×g. Compounds (100 μg/mL) were incubated with 20% hRBC (v/v) for 1 h at 37° C. and shaking at 300 rpm. The final erythrocyte concentration was approximately 0.9×10^9 cells/mL. A value of 0% and 100% cell lyses, respectively, was determined by incubation of hRBC in the presence of PBS containing 0.001% acetic acid and 2.5% Triton X-100 in H2O, respectively. The samples were centrifuged, the supernatants were 8-fold diluted in PBS buffer and the optical densities (OD) were measured at 540 nm.
Percent hemolysis was calculated as follows: (OD540peptide/OD540H2O)×100%.

Compound	Escherichia coli ATCC 25922 MIC [1] [µg/mL]	Klebsiella pneumoniae ATCC 13883 MIC [2] [µg/mL]	Acinetobacter baumannii DSM 30008 MIC [3] [µg/mL]	Hemolysis at 100 μg/mL [4]; 100 [%]	Hemolysis at 100 μg/mL ([4]; 100 μg/mL) [%]
CC[C@H](C)[C@@H]1NC(=O)[C@H](C)NC(=O)[C@@H](CCN)NC(=O)[C@H](CO)NC(=O)[C@@H]2CSSC[C@H](NC1=O)C(=O)N[C@@H](Cc1ccc(O)cc1)C(=O)N[C@@H](CCN)C(=O)N[C@@H](CCCN)C(=O)N[C@H](CCN)C(=O)N[C@@H](CCN)C(=O)N[C@@H](Cc1c[nH]c3ccccc13)C(=O)N[C@@H](CCN)C(=O)N[C@@H](C(C)(C)C)C(=O)N2 [Example 13, cyclo(-Ile-Cys-Tyr-Dab-Orn-^DDab-Dab-Trp-Dab-tBuGly-Cys-Ser-^DDab-Ala-)] (cyclo(AICY[Dab][Orn][dDab][Dab]W[Dab][Tle]CS[dDab]); disulfide 3-12)	0.5	8	2	1	–
CC(C)[C@@H]1NC(=O)[C@@H]2CCCN2C(=O)[C@@H](C)NC(=O)[C@H]([C@@H](C)O)NC(=O)[C@H](CO)NC(=O)[C@H](C(C)(C)C)NC(=O)[C@H](CCN)NC(=O)[C@H](Cc2c[nH]c3ccccc23)NC(=O)[C@H](CCN)NC(=O)[C@@H](CCN)NC(=O)[C@H](CN)NC(=O)[C@H](CCN)NC(=O)[C@H](Cc2ccc(O)cc2)NC(=O)[C@H](CN)NC1=O [Example 45, cyclo(-Val-Dap-Tyr-Dab-Dap-^DDab-Dab-Trp-Dab-tBuGly-Ser-Thr-^DAla-Pro-)] (cyclo([Dab][Dap][dDab][Dab]W[Dab][Tle]ST[dA]PV[Dap]Y))	0.5	0.25	1	4	–
CCC[C@@H]1NC(=O)[C@H](CCCNC(=N)N)NC(=O)[C@@H](CCN)NC(=O)[C@H](C(C)C)NC(=O)[C@@H]2CSSC[C@H](NC1=O)C(=O)N[C@@H](Cc1ccc(O)cc1)C(=O)N[C@@H](CC(N)=O)C(=O)N[C@@H](CCCN)C(=O)N[C@H](CCN)C(=O)N[C@@H](CCN)C(=O)N[C@@H](Cc1c[nH]c3ccccc13)C(=O)N[C@@H](CO)C(=O)N[C@@H](Cc1ccc(O)cc1)C(=O)N2 [Example 60, cyclo(-Nva-Cys-Tyr-Asn-Orn-^DDab-Dab-Trp-Ser-Tyr-Cys-Val-^DDab-Arg-)] (HELM PEPTIDE1{C.V.[NCC[C@@H](N[*:1])C(=O)[*:2]].R.[Nva].C.Y.N.[Orn].[NCC[C@@H](N[*:1])C(=O)[*:2]].[Dab].W.S.Y}$PEPTIDE1,PEPTIDE1,1:R3-6:R3|PEPTIDE1,PEPTIDE1,1:R1-14:R2$$$V2.0)	1	1	0.75	1	–
CC(C)[C@@H]1NC(=O)[C@@H]2CCCN2C(=O)[C@H](C)N(C)C(=O)[C@H](CO)NC(=O)[C@@H]2CSSC[C@H](NC1=O)C(=O)N[C@@H](Cc1ccc(O)cc1)C(=O)N[C@@H](CCN)C(=O)N[C@@H](CN)C(=O)N[C@H](CCN)C(=O)N[C@@H](CCN)C(=O)N[C@@H](Cc1c[nH]c3ccccc13)C(=O)N[C@@H](CCN)C(=O)N[C@@H](C(C)(C)C)C(=O)N2 [Example 9, cyclo(-Val-Cys-Tyr-Dab-Dap-^DDab-Dab-Trp-Dab-tBuGly-Cys-Ser-NMeAla-Pro-] (cyclo(CS[NMeA]PVCY[Dab][Dap][dDab][Dab]W[Dab][Tle]); disulfide 1-6)	0.5	0.5	1	2	–
CC(C)[C@@H]1NC(=O)[C@@H]2CSSC[C@H](NC(=O)[C@H](CC3CCCC3)NC(=O)[C@H](CCCNC(=N)N)NC(=O)[C@@H](CCN)NC1=O)C(=O)N[C@@H](Cc1ccc(O)cc1)C(=O)N[C@@H](CC(N)=O)C(=O)N[C@@H](CCCN)C(=O)N[C@H](CCN)C(=O)N[C@@H](CCN)C(=O)N[C@@H](Cc1c[nH]c3ccccc13)C(=O)N[C@@H](CO)C(=O)N[C@@H](Cc1ccc(O)cc1)C(=O)N2 [Example 58, cyclo(-Cpa-Cys-Tyr-Asn-Orn-^DDab-Dab-Trp-Ser-Tyr-Cys-Val-^DDab-Arg-)] (cyclo([Ala(cPent)]CYN[Orn][dDab][Dab]WSYCV[dDab]R); disulfide 2-11)	0.5	0.75	0.625	3	–
CC(C)C[C@@H]1NC(=O)[C@H](CCCNC(=N)N)NC(=O)[C@@H](CCN)NC(=O)[C@H](C(C)C)NC(=O)[C@@H]2CSSC[C@H](NC1=O)C(=O)N[C@@H](Cc1ccc(O)cc1)C(=O)N[C@@H](CC(N)=O)C(=O)N[C@@H](CCCN)C(=O)N[C@@H](CCN)C(=O)N[C@@H](CCN)C(=O)N[C@@H](Cc1c[nH]c3ccccc13)C(=O)N[C@@H](CO)C(=O)N[C@@H](Cc1ccc(O)cc1)C(=O)N2 [Example 55, cyclo(-Leu-Cys-Tyr-Asn-Orn-Dab-Dab-Trp-Ser-Tyr-Cys-Val-^DDab-Arg-)] (HELM PEPTIDE1{C.V.[NCC[C@@H](N[*:1])C(=O)[*:2]].R.L.C.Y.N.[Orn].[Dab].[Dab].W.S.Y}$PEPTIDE1,PEPTIDE1,1:R3-6:R3|PEPTIDE1,PEPTIDE1,1:R1-14:R2$$$V2.0)	1	1	1.25	0	–
CC(C)C[C@@H]1NC(=O)[C@H](CCCNC(=N)N)NC(=O)[C@@H](CCN)NC(=O)[C@H](C(C)C)NC(=O)[C@@H]2CSSC[C@H](NC1=O)C(=O)N[C@@H](Cc1ccc(O)cc1)C(=O)N[C@@H](C(C)C)C(=O)N[C@@H](CCCN)C(=O)N[C@H](CCN)C(=O)N[C@@H](CCN)C(=O)N[C@@H](Cc1c[nH]c3ccccc13)C(=O)N[C@@H](Cc1ccc(O)cc1)C(=O)N[C@@H](Cc1ccc(O)cc1)C(=O)N2 [Example 21, cyclo(-Leu-Cys-Tyr-Val-Orn-^DDab-Dab-Trp-Tyr-Tyr-Cys-Val-^DDab-Arg-)] (HELM PEPTIDE1{C.V.[NCC[C@@H](N[*:1])C(=O)[*:2]].R.L.C.Y.V.[Orn].[NCC[C@@H](N[*:1])C(=O)[*:2]].[Dab].W.Y.Y}$PEPTIDE1,PEPTIDE1,1:R3-6:R3|PEPTIDE1,PEPTIDE1,1:R1-14:R2$$$V2.0)	1	1	0.5	6	–
CC(C)C[C@@H]1NC(=O)[C@H](CCN)NC(=O)[C@@H](CCN)NC(=O)[C@H](C(C)C)NC(=O)[C@@H]2CSSC[C@H](NC1=O)C(=O)N[C@@H](Cc1ccc(O)cc1)C(=O)N[C@@H](CC(N)=O)C(=O)N[C@@H](CCCN)C(=O)N[C@H](CCN)C(=O)N[C@@H](CCN)C(=O)N[C@@H](Cc1c[nH]c3ccccc13)C(=O)N[C@@H](CO)C(=O)N[C@@H](Cc1ccc(O)cc1)C(=O)N2 [Example 51, cyclo(-Leu-Cys-Tyr-Asn-Orn-^DDab-Dab-Trp-Ser-Tyr-Cys-Val-^DDab-Dab-)] (HELM PEPTIDE1{C.V.[NCC[C@@H](N[*:1])C(=O)[*:2]].[Dab].L.C.Y.N.[Orn].[NCC[C@@H](N[*:1])C(=O)[*:2]].[Dab].W.S.Y}$PEPTIDE1,PEPTIDE1,1:R3-6:R3|PEPTIDE1,PEPTIDE1,1:R1-14:R2$$$V2.0)	0.75	0.75	0.75	2	–
CC(C)C[C@@H]1NC(=O)[C@H](CCCNC(=N)N)NC(=O)[C@H]2CCCN2C(=O)[C@H](C(C)C)NC(=O)[C@@H]2CSSC[C@H](NC1=O)C(=O)N[C@@H](Cc1ccc(O)cc1)C(=O)N[C@H]1CSSC[C@H](NC(=O)[C@H](Cc3c[nH]c4ccccc34)NC(=O)[C@H](CCN)NC(=O)[C@H](CCN)NC(=O)[C@H](CCN)NC1=O)C(=O)N[C@@H](Cc1ccc(O)cc1)C(=O)N2 [Example 42, cyclo(-Leu-Cys-Tyr-Cys-Dab-Dab-Dab-Trp-Cys-Tyr-Cys-Val-^DPro-Arg-)] (HELM PEPTIDE1{C.[Dab].[Dab].[Dab].W.C.Y.C.V.[dP].R.L.C.Y}$PEPTIDE1,PEPTIDE1,1:R3-6:R3|PEPTIDE1,PEPTIDE1,8:R3-13:R3|PEPTIDE1,PEPTIDE1,1:R1-14:R2$$$V2.0)	4	2	1	–	3
